Laboratory results taken from US20110144205A1, “Blood Glutathione as a Biomarker for Screening Asymptomatic Patients at Risk for Heart Failure” (INSERM (Institut National de la Recherche Medicale), priority 2008, published 2011).

Tests used:
[1] = test system: mouse model of human hypertrophic cardiomyopathy; settings: oral NAC treatment; cited from earlier work
[2] = test system: postoperative atrial fibrillation; settings: cited from earlier work
[3] = test system: cardiomyopathic mice with missense LMNA mutation; assay: Mouse model carrying a missense LMNA mutation and developing a dilated cardiomyopathy; format: in vivo; settings: oral treatment, mouse model with missense LMNA mutation
[4] = test system: cardiomyopathic mice with missense LMNA mutation; settings: oral NAC treatment; cited from earlier work
[5] = test system: heart-failing hypertensive rats; settings: oral NAC treatment; cited from earlier work

## CC(=O)N[C@@H](CS)C(=O)O [NAC, N-acetylcysteine]
[1]
  established hypertrophy: reverses established hypertrophy
[2]; intravenous infusion for 1 h before and 48 h after cardiac surgery, Ozaydin et al. 2008
  incidence of postoperative atrial fibrillation (AF): decreased the incidence of postoperative atrial fibrillation
[2]; oral NAC treatment, patients
  post-operative atrial fibrillation: prevents post-operative atrial fibrillation
[3]
  heart structure and function: significantly improved heart structure and function
[4]
  cardiac structure and function: improves cardiac structure and function
[5]
  cardiac structure and function: improves cardiac structure and function
